Reference: patent US20190105344A1, “ORAL MOLECULAR IODINE COMPOSITION AND METHOD” (Iogen, LLC, priority 2016, published 2019)
Read-outs that look alike come from different tables or passages of the source. Values belong to the compound of their own block, whether it stands above or below them.

Assays:
[1] = Iodination of arachidonic acid by molecular iodine with additional iodate (thiosulfate titration, Example 3); assay type: physicochemical
Method: A stock solution of 10 mg/ml arachidonic acid in ethanol was prepared. […] A control vial was prepared that had no arachidonic acid. An iodate/iodide solution was prepared separately by adding NaIO3 (Sigma-Aldrich, St. Louis, Mo.; part number […]) and NaI (Sigma-Aldrich, St.

[2] = Iodination of arachidonic acid by molecular iodine (thiosulfate titration, Example 1); assay type: physicochemical; conditions: 0.01N sodium thiosulfate titration
Method: A stock solution of 10 mg/ml arachidonic acid in ethanol was prepared. […] A control vial was prepared that had no arachidonic acid.
An iodate/iodide solution was prepared separately by adding NaIO3 (Sigma-Aldrich, St. Louis, Mo.; part number S4007-500G) and NaI (Sigma-Aldrich, St. Louis, Mo.; part number […]) to final concentrations of 3.16 and 20.55 mM, respectively, in 0.64M sodium carbonate in water.
Vials were then titrated with 0.01N sodium thiosulfate solution until the samples went from dark blue to colorless.
Since the oxidation of iodide after acidification is diffusion controlled, the reaction of iodate with iodide is essentially instantaneous and five moles of iodide reacts with each mole of iodate to form 3 moles of molecular iodine.
The ratio of iodide to iodate used in this experiment insured that there was unreacted […] present in the solution after acidification with HCl.

[3] = cited from earlier work
[4] = Method: An iodate/iodide solution was prepared separately by adding sodium iodate (Sigma-Aldrich, St. Louis, Mo.; part number S4007-500G) and sodium iodide (Sigma Aldrich, St. Louis, Mo.; part number 383112-100G) to final concentrations of 3.16 and 20.55 mM, respectively, in 0.64M sodium carbonate in water. One mL of the iodate/iodide solution was then added to the vials followed by 100 μl of 0.5% starch indicator.
This additional sodium iodate was added to provide additional oxidant to re-oxidize any iodide that might be formed by the iodination of arachidonic acid.
Two mL of 1N HCl was added and a visual observation of the samples was recorded. Vials were then titrated with 0.01N sodium thiosulfate solution until the samples went from dark blue to colorless.

[5] = male rats, subchronic administration, cited from earlier work
[6] = tested on: N-methyl-N-nitrosourea-induced mammary carcinogenesis; conditions: in vivo; cited from earlier work
[7] = Subchronic administration to male rats, thyroid weight; assay type: in vivo; conditions: mammals; iodide vs molecular iodine

decrease of molecular iodine observed from Sample 3 to Sample 4 ([1]; 1 mg arachidonic acid, additional iodate): 0.50 ∞mol | molecular iodine reacted with ([1]; one mg arachidonic acid, Sample 2 vs Sample 1, unit of the source corrected): 1 µmol | Thiosulfate ([2]; 0.3 mg arachidonic acid): 1.75 mL | Thiosulfate ([2]; 1.0 mg arachidonic acid): 1.62 mL
Compound: CCCCC/C=C\C/C=C\C/C=C\C/C=C\CCCC(=O)O [Arachidonic Acid, (5Z,8Z,11Z,14Z)-5,8,11,14-eicosatetraenoic acid]
systemic inflammation ([3]; bodybuilders, 1500 mg): may reduce systemic inflammation | toxicity or safety risk ([3]; daily oral administration of up to 1500 mg): no toxicity or safety risk | carcinogenicity ([3]; in vivo): not carcinogenic

Thiosulfate ([1]; sample 2: 1 mg acid, no additional NaIO3): 1.70 mL | Thiosulfate ([1]; sample 4: 1 mg acid, additional NaIO3 188 ∝g): 2.10 mL | Thiosulfate ([4]; sample 2: 1 mg sorbic acid, no additional NaIO3): 1.45 mL | Thiosulfate ([4]; sample 4: 1 mg sorbic acid, additional NaIO3 188 ∝g): 1.60 mL
Compound: C/C=C/C=C/C(=O)O [Sorbic Acid, sorbic acid, reference compound]

concentration affecting thyroid weight, less than for a comparable effect from molecular iodine [7]: 10 fold
Compound: I [iodide]
thyroid weight ([5]; 10 mg/kg): increased | formation of carcinogen induced tumors [6]: not

Compound: II [molecular iodine]
thyroid weight ([5]; even at 100 mg/kg): did not affect thyroid weight | formation of carcinogen induced tumors [6]: inhibits
